From US7855200B2, “Method for treatment of gastric ulcers and ulcers induced by aspirin” (Council of Scientific and Industrial Research, priority 2006, dated 2010)

Legend:
Assay type in all cases: in vivo, albino rats
[1] = test system: gastric ulceration in cold restraint rats; assay: Cold restraint (stress) induced ulcers; set-up: Ulcer index Mean(SE): scale not given here; conditions: rats, 25 mg/kg per orally, 4° C. for 2 hours; for inhibition at 25 mg/kg: Rattus norvegicus, po
Source text: (§1) The compounds taken under study for antigastric ulcer screening by four different models were selected using experimental albino rats: • 1. Aspirin induced gastric ulceration • 2. Pylorus ligated gastric ulceration • 3. Ethanol induced gastric ulceration • 4. Stress induced gastric ulceration
(§2) The commercially available drug ranitidine (sigma), Omeprazole (sigma) and sucralfate (Merck) were used as reference standard in experimental models. The Tween-80 (SD fine chemicals) was used as vehicle for the administration of the drug, which is used as control.
(§3) The antiulcer activity of the compounds was studied. The animals were divided into 21 groups of 7 animals each. Group 1 received the vehicle Tween 80 (1%, 1 ml) which served as the control. Group 2 received ranitidine at a dose of 50-mg/kg body weight, which served as standard for comparison. Group 3 to 21 at a dose of 25 mg/kg body weight. Animals were deprived of food 48 hours before the experiment. The water was allowed for free access. Rats were administered per orally with compounds and the drug ranitidine. The water was removed 1 hour before restraint and exposed to a temperature of 4° C. for 2 hours. Two hours after stress, the animals were sacrificed. The stressed animals were opened along the greater curvature and the severity of gastric ulcer was assessed in terms of mean ulcer index. 2.
as §3, with “8” for “21”, “6” for “7”, “50, 25, 15, 10 and 5” for “25”, “weight respectively.” for “weight.”, “index.” for “index. 2.”

[2] = test system: Pylorus ligated rats; assay: Pylorus ligated ulcers; conditions: 25 mg/kg, 4 hours after pylorus ligation; for inhibition at 25 mg/kg: Rattus norvegicus
Source text: as §1, §2
The animals were divided into 19 groups of 6 animals each. Animals were deprived of food for 48 hours but had free access to water. Group 1 received the vehicle Tween 80 (1%, 1 ml) which served as the control. Group 2 received ranitidine at a dose of 50-mg/kg-body weight, which served as standard for comparison. […] After one hour of administration of drug the stomach was ligated at the pylorus under ether anesthesia. 4 hours after pylorus ligation, the animals were sacrificed and the contents drained and centrifuges at 5000 rpm for 10 minutes. Aliquots of supernatant were used for determination of total acid by titrating with 0.01N NaOH using topfers reagent and phenolphthalein indicators. 4.
The animals were divided into 7 groups of 6 animals each. Animals were deprived of food for 48 hours but had free access to water. Group 1 received the vehicle Tween 80 (1%, 1 ml) which served as the control. Group 2 received ranitidine at a dose of 50-mg/kg-body weight, which served as standard for comparison. Group 3 to 7 received at a dose of 50, 25, 15, 10 and 5 mg/kg body weight respectively. After one hour of administration of drug the stomach was ligated at the pylorus under ether anesthesia. 4 hours after pylorus ligation, the animals were sacrificed and the contents drained and centrifuges at 5000 rpm for 10 minutes. Aliquots of supernatant were used for determination of total acid by titrating with 0.01N NaOH using topfers reagent and phenolphthalein indicators.

[3] = test system: ethanol induced gastric ulcers; assay: Ethanol induced ulcers; conditions: rats, 25 mg/kg, ethanol challenge; for inhibition at 25 mg/kg: Rattus norvegicus; for Acidity Total mEg / Gastric content / pH: 4 hours after pylorus ligation
Procedure: Stress induced gastric ulceration The commercially available drug ranitidine (sigma), Omeprazole (sigma) and sucralfate (Merck) were used as reference standard in experimental models. The Tween-80 (SD fine chemicals) was used as vehicle for the administration of the drug, which is used as control. The animals were divided into 22 groups of 6 animals each. Animals were deprived of food for 48 hours but had free access to water. Group 1 received the vehicle Tween 80 (1%, 1 ml) which served as the control. Group 2 received ranitidine at a dose of 50-mg/kg-body weight, which served as standard for comparison. Group 3 to received Omeprazole at a dose of 30-mg/kg body weight, which served as standard for comparison. Group 4 received sucralfate at a dose of 400-mg/kg body weight, which served as standard for comparison. Group 5 to 22 received at a dose of 25 mg/kg body weight. Lesions were induced 1 hour after ethanol challenge animals. The stomach was ligated at the pylorus under ether anesthesia. 4 hours after pylorus ligation, the animals were sacrificed and the contents drained and centrifuges at 5000 rpm for 10 minutes. Aliquots of supernatant were used for determination of total acid by titrating with 0.01N NaOH using topfers reagent and phenolphthalein indicators. […] The animals were divided into 9 groups of 6 animals each. Animals were deprived of food for 48 hours but had free access to water. Group 1 received the vehicle Tween 80 (1%, 1 ml) which served as the control. Group 2 received ranitidine at a dose of 50-mg/kg-body weight, which served as standard for comparison. Group 3 to received Omeprazole at a dose of 30-mg/kg body weight, which served as standard for comparison. Group 4 received sucralfate at a dose of 400-mg/kg body weight, which served as standard for comparison. […] Lesions were induced 1 hour after ethanol challenge animals. The stomach was ligated at the pylorus under ether anesthesia. 4 hours after pylorus ligation, the animals were sacrificed and the contents drained and centrifuges at 5000 rpm for 10 minutes. Aliquots of supernatant were used for determination of total acid by titrating with 0.01N NaOH using topfers reagent and phenolphthalein indicators.

[4] = test system: acetyl salicylic acid induced gastric lesions; assay: Acetyl salicylic acid (aspirin) induced gastric ulcer; set-up: Ulcer index Mean(SE): scale not given here; conditions: rats, 25 mg/kg per orally daily for five days, aspirin 200 mg/kg; for inhibition at 25 mg/kg: Rattus norvegicus, po, 120 h
Procedure: Stress induced gastric ulceration The commercially available drug ranitidine (sigma), Omeprazole (sigma) and sucralfate (Merck) were used as reference standard in experimental models. The Tween-80 (SD fine chemicals) was used as vehicle for the administration of the drug, which is used as control. Antiulcer activity of the compounds under taken was studied. The animals were divided into 20 groups of 6 animals each. Group 1 received the vehicle Tween 80 (1%, 1 ml) which served as the control. Group 2 received ranitidine at a dose of 50-mg/kg body weight, which served as standard for comparison. Group 3 to 20 at a dose of 25 mg/kg body weight. Rats were administered per orally with a daily dose of the compounds and the drug ranitidine for a period of five days and then fasted for 24 hours. The […] acetyl salicylic acid (aspirin) at a dose of 200 mg/kg body weight was administered as a suspension in tween-80 (1%), 30 min after the drug administration each day. All drugs were administered orally on the 6th day after the last administration of the drugs and the ulcer inducing agent aspirin, the rats were killed by cervical dislocation and their stomach were opened along the greater curvature and washed with luke warm saline and examined under a dissecting microscope. The ulcer index was calculated for each stomach. […] The antiulcer activity of the compounds was studied. The animals were divided into 19 groups of 6 animals each. Group 1 received the vehicle Tween 80 (1%, 1 ml) which served as the control. Group 2 received ranitidine at a dose of 50-mg/kg-body weight, which served as standard for comparison. […] Rats were administered per orally with a daily dose of the compounds and the drug ranitidine to respective groups for a period of five days and then fasted for 24 hours. The […] acetyl salicylic acid (aspirin) at a dose of 200 mg/kg body weight was administered as a suspension in tween-80 (1%), 30 min after the drug administration each day. All drugs were administered orally on ht […] day after the last administration of the drugs and the ulcer inducing agent aspirin, the rats were killed by cervical dislocation and their stomach were opened along the greater curvature and washed with luke warm saline and examined under a dissecting microscope.

O=c1cc(-c2ccccc2)oc2cc(OCCCN3CCCCC3)cc(O)c12 [CPP-2, 5-Hydroxy-2-phenyl-7-(3-piperidin-1-yl-propoxy)-chromen-4-one]
inhibition at 25 mg/kg [1]: 61.4%
Ulcer index Mean(SE) [1]: 15.71
Acidity Total mEg [2]: 29.06 (±2.20) m Eg
Gastric content [2]: 2.60 (±0.24)
Ulcer index Mean(SE) [2]: 15.80 (±2.71)
pH [2]: 3.25 (±0.11)
inhibition at 25 mg/kg [2]: 68.5%
inhibition at 25 mg/kg [3]: 36.2%
Ulcer index Mean(SE) [3]: 28.83 (±2.71)
Acidity Total mEg [3]: 44.60 (±4.12) mEg
Gastric content [3]: 3.2 (±0.62)
pH [3]: 3.33 (±0.16)
inhibition at 25 mg/kg [4]: 66.8%
Ulcer index Mean(SE) [4]: 14.99

O=c1cc(-c2ccccc2)oc2cc(O)cc(O)c12 [Chrysin, 5,7-dihydroxy-2-phenyl-chromen-4-one]
inhibition at 25 mg/kg [1]: 42.7%
Ulcer index Mean(SE) [1]: 23.03
Acidity Total mEg [2]: 56.00 (±0.82) m Eg
Gastric content [2]: 1.85 (±0.82)
Ulcer index Mean(SE) [2]: 37.21 (±0.26)
pH [2]: 4.00 (±0.40)
inhibition at 25 mg/kg [2]: 25.7%
inhibition at 25 mg/kg [3]: 9.01%
Ulcer index Mean(SE) [3]: 60.66 (±2.88)
Acidity Total mEg [3]: 48.00 (±2.20) mEg
Gastric content [3]: 4.20 (±0.02)
pH [3]: 3.20 (±0.40)
inhibition at 25 mg/kg [4]: 46.7%
Ulcer index Mean(SE) [4]: 24.06

COc1cc(O)c2c(=O)cc(-c3ccccc3)oc2c1 [Methoxy chrysin, 5-hydroxy-7-methoxy-2-phenyl-chromen-4-one]
inhibition at 25 mg/kg [1]: 8.77%
Ulcer index Mean(SE) [1]: 27.14
Acidity Total mEg [2]: 47.20 (±2.40) m Eg
Gastric content [2]: 2.20 (±0.44)
Ulcer index Mean(SE) [2]: 48.80 (±3.07)
pH [2]: 3.20 (±0.25)
inhibition at 25 mg/kg [2]: 2.62%
inhibition at 25 mg/kg [3]: 15%
Ulcer index Mean(SE) [3]: 46.66 (±1.66)
Acidity Total mEg [3]: 49.20 (±4.12) mEg
Gastric content [3]: 3.9 (±0.40)
pH [3]: 2.91 (±0.15)
inhibition at 25 mg/kg [4]: 11.3%
Ulcer index Mean(SE) [4]: 40.00

CN1CCN(CCCOc2cc(O)c3c(=O)cc(-c4ccccc4)oc3c2)CC1 [NMC-2, 5-Hydroxy-7-[3-(4-methyl-piperzin-1-yl]-propoxy)-2-phenyl hromen-4-one]
Inhibition % [1]: 59.67%
Ulcer index Mean(SE) [1]: 16.42
Acidity Total mEg [2]: 36.26 (±2.80) m Eg
Gastric content [2]: 1.90 (±0.62)
Inhibition % [2]: 43.47%
Ulcer index Mean(SE) [2]: 28.33 (±0.10)
pH [2]: 4.25 (±0.14)
Inhibition % [3]: 57.50%
Ulcer index Mean(SE) [3]: 28.33 (±3.33)
Acidity Total mEg [3]: 30.26 (±0.42) mEg
Gastric content [3]: 4.8 (±0.06)
pH [3]: 4.75 (±0.28)
Inhibition % [4]: 48.30%
Ulcer index Mean(SE) [4]: 23.33

CN1CCN(CCCCOc2cc(O)c3c(=O)cc(-c4ccccc4)oc3c2)CC1 [NMC-3, 5-Hydroxy-7-[4-(4-methyl-piperzin-1-yl]-butoxy)-2-phenyl chromen-4-one]
Inhibition % [1]: 57.92%
Ulcer index Mean(SE) [1]: 17.13
Acidity Total mEg [2]: 43.48 (±2.50) m Eg
Gastric content [2]: 1.92 (±0.20)
Inhibition % [2]: 33.49%
Ulcer index Mean(SE) [2]: 33.33 (±2.47)
pH [2]: 3.54 (±0.15)
Inhibition % [3]: 36.25%
Ulcer index Mean(SE) [3]: 42.50 (±3.09)
Acidity Total mEg [3]: 33.48 (±2.28) mEg
Gastric content [3]: 4.5 (±1.12)
pH [3]: 4.50 (±0.18)
Inhibition % [4]: 33.52%
Ulcer index Mean(SE) [4]: 30.00

COc1c(OC2OC(C(=O)O)C(O)C(O)C2O)cc2oc(-c3ccccc3)cc(=O)c2c1O (stereo not drawn) [OA-5 acid, 3,4,5-Trihydroxy-6-(5-hydroxy-6-methoxy-4-oxo-2-phenyl-4H-chromen-7-yloxy)-tetrahydro-pyran-2-carboxylic acid]
inhibition at 25 mg/kg [1]: 41.9%
Ulcer index Mean(SE) [1]: 23.33
Acidity Total mEg [2]: 41.00 (±0.57) m Eg
Gastric content [2]: 2.16 (±0.16)
Ulcer index Mean(SE) [2]: 38.33 (±1.66)
pH [2]: 3.03 (±0.03)
inhibition at 25 mg/kg [2]: 23.5%
inhibition at 25 mg/kg [3]: 45%
Ulcer index Mean(SE) [3]: 36.66 (±3.33)
Acidity Total mEg [3]: 47.66 (±1.45) mEg
Gastric content [3]: 5.50 (±0.28)
pH [3]: 3.20 (±0.17)
inhibition at 25 mg/kg [4]: 48.3%
Ulcer index Mean(SE) [4]: 23.33
